Columns and labels:
L-type Ca2+ channels = target: T1, L-type Ca2+ channels (Mus musculus, UniProt Q01815); experiment: L-type Ca2+ channel current, whole-cell patch clamp in isolated mouse cardiomyocytes; assay type: cell-based; conditions: Ba2+ as charge carrier
T1 construct: currents through L-type Ca^2+ channels in isolated mouse cardiomyocytes are recorded; endogenous in cells; host or cells: isolated mouse cardiomyocytes
Procedure: The final pellets are pooled and resuspended in imidazole buffer (final concentration≈10 μg/μl). […] Immunoblots are developed using an anti-FKBP antibody (1:3,000 dilution). The amount of rebinding is quantified using densitometry of Western blots and is compared to the amount of FKBP associated with RyR in non-phosphorylated SR. […] K2ATP, 5; HEPES, 10; aspartic acid, 50; pH 7.4 (CsOH). […] Drugs are applied by a local solution changer and reach the cell membrane within 1 s.

C57BL/6J mice [1] = experiment: S36 chronic exercise model: swimming velocity tracking and treadmill running; assay type: in vivo, mouse
Procedure: Drug Delivery: Eight-week-old, wild-type, weight-matched, C57BL/6J littermate mice were randomized to either S36 or vehicle treatment. On day −2, osmotic infusion pumps (Alzet Model 2004, 200 μl total volume, 0.25 μl/hr delivery, Durect, Cupertino, Calif.) filled with either 200 ul of PBS or 200 μl of S36 (10 μg/ul diluted in PBS) were implanted subcutaneously on the dorsal surface of the mice by a horizontal incision just behind the neck. Mice were allowed to recover for three days prior to the initiation of exercise. Standard food and water were provided ad libitum.
Exercise Protocols: Beginning on day 1, mice were exercised for three weeks by swimming 5 days/week and by running on a treadmill an additional 1 day/week.
Swimming Model: The daily swimming protocol consisted of swimming sessions twice-daily separated by one-hour rest periods. After an initial conditioning regimen lasting 5 days during which the swimming sessions were increased in 10 minute increments from 40 minutes each to 80 minutes each, the swimming sessions thereafter lasted 90 minutes each. A 30 cm wide by 30 cm long opaque acrylic tank was filled with tap water to a depth of at least 20 cm. Water was circulated and warmed to 32-34 degrees C. using a separate reservoir with heating element, thermostat, and pump. Compressed room air was bubbled from Tygon tubing with small needle holes placed at the bottom of the tank to agitate the water surface. 4 mice, matched pair-wise with respect to treatment group, swam at any one time in the tank.
In order to track the swimming activity of each individually identified mouse, a video tracking system was used (San Diego Instruments, San Diego, Calif.), which includes Sony CCD video recorder, DVD/Hard Drive, frame grabber card, and custom SMART 2.0 software with Social Behavior package capable of tracking up to 8 mice simultaneously under ideal conditions.) Mice were anesthetized by using 1.5% isoflurane in O2, and small, 0.75 cm, Velcro coins were sutured with 5-0 nylon suture to the scalp of each mouse. Plastic 1 cm colored dots, glued to the hook side of the Velcro, could be securely attached to the mouse and used for multiple subject tracking under appropriate lighting conditions. Each resultant mouse track in x,y, and time was analyzed and mean velocities, and distance swam over 2, 5, and 10 minute intervals was obtained.
Treadmill running: A Columbus Instruments (Columbus, Ohio) treadmill (Model: Exer-6M Treadmill with Treadmill Shock Detection Unit) with 6 lanes was used to run the mice. Mice were placed in their respective lanes at the lowest speed (7 meters/min) with the shocking apparatus turned off and allowed to adjust to the surroundings for 6 minutes. The forward half of the treadmill was covered with aluminum foil to block out light. A desk lamp illuminated the shocking area at the rear of the treadmill. After the adjustment period, the electric current was turned on, and the number of shocks delivered during the next two three minute intervals (training period) were recorded. The shock counter was then reset, the speed was increased to 10 m/min, and visits to the shocking area and shocks delivered to each mouse were recorded at three-minute intervals until the end of the experiment. At regular intervals, the speed of the treadmill was ramped up from the initial 10 m/min to as high as 36 m/min. The speed was increased no more than 2 m/min every 6 minutes. […]

RyR1 = target: T2, RyR1 (Mus musculus, UniProt E9PZQ0); experiment: RyR1 immunoprecipitation from soleus muscle after 21 days of exercise, calstabin1 western blot; assay type: in vivo; conditions: subcutaneous mini-osmotic pump
T2 construct: RyR1 was immunoprecipitated from soleus muscle homogenates of mice following 21 days of exercise; from tissue; host or cells: mouse hind-limb skeletal muscle (soleus, EDL; SR microsomes for bilayer recording)
Procedure: RyR1 was immunoprecipitated from soleus muscle homogenates of mice following 21 days of exercise with or without simultaneous subcutaneous mini-osmotic pump treatment with S36 and then western blotted back for RyR1, phospho-epitope specific RyR1-pS2844, and calstabin1 bound to the RyR1 macromolecular complex.
The samples were incubated with protein A Sepharose beads (Amersham Pharmacia) at 4° C. for 1 h, after which the beads were washed three times with buffer. Proteins were separated on SDS PAGE gels (6% for RyR2 and 15% for calstabin2) and transferred onto nitrocellulose membranes overnight (SemiDry transfer blot, Bio-Rad). After incubation with 5% nonfat milk to prevent non-specific antibody binding and a wash in Tris-buffered saline with 0.1% Tween-20, membranes were incubated for 1-2 h at room temperature with primary antibodies anti-calstabin (1:1,000), anti-RyR (5029; 1:5,000), or anti-phospho-RyR2-pSer2809 (1:5,000), which detects PKA-phosphorylated mouse RyR1-pSer2844 and RyR2-pSer2808. After three washes, membranes were incubated with horseradish peroxidase-labeled anti-rabbit IgG (1:5,000, Transduction Laboratories, Lexington, Ky.), and developed with an enhanced chemiluminescent detection system (Amersham Pharmacia). Band densities were quantified by using QUANTITY ONE software (Bio-Rad).

C57BL/6J mice [2] = experiment: Morris water maze spatial learning in exercised mice; assay type: in vivo, mouse; conditions: end of 21-day testing period, p approximately 0.2, n=8
Procedure: 16 wild type C57BL/6J 3-month-old mice, pairwise-matched for sex, age, and body weight, were randomized to either S 107 treatment (10 mg/ml; 0.25 μl/hr subcutaneous osmotic pump) or “vehicle” (25% DMSO in dH2O) treatment groups.
Mice were sacrificed after 21 days for performing biochemistry, calcium imaging and ex vivo function studies.
The layout of the water maze system consists of a circular water tank divided into four quadrants (labeled 1 thru 4 in FIG. 58, with four hidden platforms (labeled 5 to 8 in FIG. 58). The following protocol was followed: Day 1: mice trained to find “hidden” platform with visible marker on platform from random starting location. On days 2-4, the visible cue was removed, and mice were repeatedly challenged to find hidden platform at target 5 in quadrant 1. The time taken for each mouse to reach the target, i.e. the “latency,” was recorded. On day 5, the previous day's protocol was repeated, then the hidden platform was removed, and each mouse's movements recorded to quantify time in various target regions. The protocol was repeated in week 2.
The platform was then removed, and the swimming pattern of the mice was assessed at the end of the 21-day testing period.

T1 sequence (Q01815 whole entry): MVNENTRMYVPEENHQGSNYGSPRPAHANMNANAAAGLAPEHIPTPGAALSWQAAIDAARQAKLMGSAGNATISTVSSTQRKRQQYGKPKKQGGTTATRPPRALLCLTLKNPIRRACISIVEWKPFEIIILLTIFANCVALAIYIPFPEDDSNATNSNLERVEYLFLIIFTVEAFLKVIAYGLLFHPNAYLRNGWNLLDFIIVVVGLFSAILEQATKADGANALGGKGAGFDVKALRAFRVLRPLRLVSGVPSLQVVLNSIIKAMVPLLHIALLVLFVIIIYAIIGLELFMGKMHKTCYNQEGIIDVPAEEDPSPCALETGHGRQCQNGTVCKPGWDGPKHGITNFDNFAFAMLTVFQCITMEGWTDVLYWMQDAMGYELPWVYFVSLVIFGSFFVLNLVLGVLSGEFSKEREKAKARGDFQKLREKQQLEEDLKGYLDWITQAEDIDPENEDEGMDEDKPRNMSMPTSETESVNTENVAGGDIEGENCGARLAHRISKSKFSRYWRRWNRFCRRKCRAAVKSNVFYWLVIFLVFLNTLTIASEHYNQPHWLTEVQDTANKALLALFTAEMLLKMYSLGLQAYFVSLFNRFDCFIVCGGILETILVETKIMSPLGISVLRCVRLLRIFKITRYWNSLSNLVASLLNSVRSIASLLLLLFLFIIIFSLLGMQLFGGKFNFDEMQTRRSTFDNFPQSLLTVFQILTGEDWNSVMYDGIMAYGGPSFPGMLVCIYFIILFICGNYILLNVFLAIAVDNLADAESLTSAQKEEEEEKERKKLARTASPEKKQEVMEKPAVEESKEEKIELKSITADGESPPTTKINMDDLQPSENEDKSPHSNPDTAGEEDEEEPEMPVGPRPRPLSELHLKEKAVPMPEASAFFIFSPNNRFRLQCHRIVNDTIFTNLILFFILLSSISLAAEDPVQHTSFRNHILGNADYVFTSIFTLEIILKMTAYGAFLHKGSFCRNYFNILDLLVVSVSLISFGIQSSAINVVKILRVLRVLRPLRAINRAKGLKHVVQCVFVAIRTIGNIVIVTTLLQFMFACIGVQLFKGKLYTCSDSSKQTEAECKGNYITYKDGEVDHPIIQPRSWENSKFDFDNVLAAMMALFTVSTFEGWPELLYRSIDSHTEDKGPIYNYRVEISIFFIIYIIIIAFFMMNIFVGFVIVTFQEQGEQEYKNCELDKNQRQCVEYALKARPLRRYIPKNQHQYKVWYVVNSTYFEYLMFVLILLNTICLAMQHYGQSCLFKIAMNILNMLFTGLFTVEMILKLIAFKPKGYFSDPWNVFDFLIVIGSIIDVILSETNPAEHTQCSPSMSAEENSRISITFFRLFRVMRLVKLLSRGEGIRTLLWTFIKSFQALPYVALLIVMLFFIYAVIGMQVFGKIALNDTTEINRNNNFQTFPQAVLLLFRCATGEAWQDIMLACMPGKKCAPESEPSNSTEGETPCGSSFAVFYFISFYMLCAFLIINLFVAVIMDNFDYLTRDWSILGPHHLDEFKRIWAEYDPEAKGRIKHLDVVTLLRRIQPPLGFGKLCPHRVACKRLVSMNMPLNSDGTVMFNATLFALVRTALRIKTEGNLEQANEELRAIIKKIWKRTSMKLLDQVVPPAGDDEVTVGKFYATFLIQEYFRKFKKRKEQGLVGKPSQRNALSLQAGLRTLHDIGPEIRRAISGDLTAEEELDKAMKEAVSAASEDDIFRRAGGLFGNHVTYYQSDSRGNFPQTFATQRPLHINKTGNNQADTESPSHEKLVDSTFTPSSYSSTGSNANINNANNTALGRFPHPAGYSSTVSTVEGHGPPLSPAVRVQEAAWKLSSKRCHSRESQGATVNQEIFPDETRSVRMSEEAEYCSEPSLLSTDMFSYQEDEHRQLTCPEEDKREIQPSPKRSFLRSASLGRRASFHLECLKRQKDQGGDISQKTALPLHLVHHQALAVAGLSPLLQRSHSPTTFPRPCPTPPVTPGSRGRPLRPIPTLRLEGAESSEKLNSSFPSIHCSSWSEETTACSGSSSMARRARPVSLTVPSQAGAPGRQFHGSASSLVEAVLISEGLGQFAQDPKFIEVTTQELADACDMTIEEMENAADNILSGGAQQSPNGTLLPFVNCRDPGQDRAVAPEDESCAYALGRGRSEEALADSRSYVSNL
T1 sequence (Q8CC27 whole entry partner): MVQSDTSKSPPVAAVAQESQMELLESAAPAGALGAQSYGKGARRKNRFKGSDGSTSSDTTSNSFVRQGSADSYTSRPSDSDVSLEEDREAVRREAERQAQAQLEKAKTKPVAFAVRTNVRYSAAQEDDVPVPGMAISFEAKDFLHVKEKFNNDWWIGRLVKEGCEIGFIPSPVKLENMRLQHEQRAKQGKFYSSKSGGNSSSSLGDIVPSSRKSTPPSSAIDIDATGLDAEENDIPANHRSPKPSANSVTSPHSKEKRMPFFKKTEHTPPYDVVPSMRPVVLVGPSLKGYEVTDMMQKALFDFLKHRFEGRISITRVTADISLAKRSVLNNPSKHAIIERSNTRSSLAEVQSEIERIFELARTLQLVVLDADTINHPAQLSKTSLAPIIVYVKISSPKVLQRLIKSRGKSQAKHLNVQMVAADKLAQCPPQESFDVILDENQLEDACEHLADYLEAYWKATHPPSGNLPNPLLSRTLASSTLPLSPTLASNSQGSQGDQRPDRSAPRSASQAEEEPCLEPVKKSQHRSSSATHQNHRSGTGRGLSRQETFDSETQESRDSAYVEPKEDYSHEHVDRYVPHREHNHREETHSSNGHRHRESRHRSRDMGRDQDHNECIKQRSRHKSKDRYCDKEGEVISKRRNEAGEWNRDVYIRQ
T1 sequence (O08532 25-956 partner limits assumed): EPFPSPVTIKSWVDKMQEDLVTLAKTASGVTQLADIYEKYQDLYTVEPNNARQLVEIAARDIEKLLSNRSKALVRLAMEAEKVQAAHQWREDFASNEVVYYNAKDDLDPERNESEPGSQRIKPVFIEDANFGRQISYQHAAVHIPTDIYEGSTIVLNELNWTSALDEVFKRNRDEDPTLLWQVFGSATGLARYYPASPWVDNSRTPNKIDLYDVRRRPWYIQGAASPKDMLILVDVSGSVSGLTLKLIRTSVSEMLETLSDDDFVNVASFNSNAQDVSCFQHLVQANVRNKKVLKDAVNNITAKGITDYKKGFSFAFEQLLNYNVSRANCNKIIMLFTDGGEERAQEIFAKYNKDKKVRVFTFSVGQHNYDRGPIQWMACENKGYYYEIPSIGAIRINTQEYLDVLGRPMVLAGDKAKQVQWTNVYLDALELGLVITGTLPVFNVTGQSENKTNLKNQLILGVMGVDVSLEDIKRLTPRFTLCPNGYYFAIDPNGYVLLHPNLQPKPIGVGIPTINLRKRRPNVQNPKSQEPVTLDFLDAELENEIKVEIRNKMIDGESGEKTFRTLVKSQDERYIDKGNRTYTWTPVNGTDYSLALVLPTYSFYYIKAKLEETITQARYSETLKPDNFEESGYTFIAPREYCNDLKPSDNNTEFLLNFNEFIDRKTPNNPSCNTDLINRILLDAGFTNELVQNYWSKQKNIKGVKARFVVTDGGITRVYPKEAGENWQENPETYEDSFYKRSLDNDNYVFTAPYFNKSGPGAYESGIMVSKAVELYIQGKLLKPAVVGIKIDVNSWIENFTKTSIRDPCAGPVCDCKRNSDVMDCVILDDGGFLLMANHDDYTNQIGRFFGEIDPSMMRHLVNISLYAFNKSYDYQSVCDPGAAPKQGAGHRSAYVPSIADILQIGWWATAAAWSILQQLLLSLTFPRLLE
T1 sequence (O08532 957-1103 partner limits assumed): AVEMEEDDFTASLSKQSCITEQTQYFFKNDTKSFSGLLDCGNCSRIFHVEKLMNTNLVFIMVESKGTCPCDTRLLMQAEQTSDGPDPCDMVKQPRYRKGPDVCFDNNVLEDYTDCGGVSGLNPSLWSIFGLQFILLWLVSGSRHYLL

| Compound | block of L-type Ca2+ channel current (ICa,L) (L-type Ca2+ channels) | swimming velocity vs PBS (C57BL/6J mice [1]; day 1 of exercise) | swimming velocity and treadmill distance/fatigue time vs PBS (C57BL/6J mice [1]; day 7 of exercise) | swimming velocity vs PBS (C57BL/6J mice [1]; day 14) | treadmill running performance vs PBS (C57BL/6J mice [1]; day 14) | treadmill running performance vs PBS (C57BL/6J mice [1]; day 16) | calstabin1 bound to RyR1 (RyR1) | learning / persistence in Morris water maze probe (C57BL/6J mice [2]) |
| --- | --- | --- | --- | --- | --- | --- | --- | --- |
| COc1ccc2c(c1)CN(C(=O)C(=O)O)CCS2 [S36] | does not block | no substantial difference | no substantial difference | no significant difference | trend toward improved performance | trend toward improved performance | allows RyR1 to rebind calstabin1 |  |
| COc1ccc2c(c1)CN(C)CCS2 [S107] |  |  |  |  |  |  |  | trend towards improved learning or increased persistence |

From patent US8710045B2, “Agents for preventing and treating disorders involving modulation of the ryanodine receptors” (The Trustees of Columbia University in the City of New York, priority 2004, dated 2014)
